Laboratory results reported in the supplement of paper PMC10307832.

Experiments:
Experiment in all cases: relative viability (nuclei count vs DMSO), 5 days (fraction); higher = more cells survive
NCI-H1755 = settings: first compound 4 µM
Outline: (§1)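 Lung cancer cell lines in 1536-well plates got either a single drug or a fixed anchor-drug dose together with five library-drug doses (not always all listed) in √10 steps, by pin tool, on the day after seeding. Nuclei were counted after 5 days, and relative viability is the treated-to-vehicle ratio of nuclei counts. Values are medians of duplicate plates.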

NCI-H1792 = test system: NCI-H1792
Outline: as §1

NCI-H1944 = test system: NCI-H1944
Outline: as §1

NCI-H1975 = test system: NCI-H1975
Outline: as §1

NCI-H2170 = test system: NCI-H2170
Outline: as §1

NCI-H23 = test system: NCI-H23
Outline: as §1

NCI-H441 = test system: NCI-H441
Outline: as §1

NCI-H520 = test system: NCI-H520
Outline: as §1

NCI-H596 = test system: NCI-H596
Outline: as §1

PC-3 [JPC-3] = test system: PC-3 [JPC-3]
Outline: as §1

SK-MES-1 = test system: SK-MES-1
Outline: as §1

SW 900 = test system: SW 900
Outline: as §1

Which results are given for `C[C@@H]1CN(CC(=O)Nc2ccc3c(c2)Cc2cccc(-c4cc(=O)cc(N5CCOCC5)o4)c2S3)C[C@H](C)O1` + CCNC(=O)c1noc(-c2cc(C(C)C)c(O)cc2O)c1-c1ccc(CN2CCOCC2)cc1 [Luminespib] (partner 0.01 µM)?
relative viability (NCI-H1755): 0.258; relative viability (NCI-H1792; first compound 0.04 µM): 0.385; relative viability (NCI-H1792; first compound 0.1265 µM): 0.493; relative viability (NCI-H1792; first compound 0.4 µM): 0.399; relative viability (NCI-H1792; first compound 4 µM): 0.333; relative viability (NCI-H1944; first compound 0.04 µM): 0.676; relative viability (NCI-H1944; first compound 0.1265 µM): 0.729; relative viability (NCI-H1944; first compound 0.4 µM): 0.938; relative viability (NCI-H1944; first compound 4 µM): 0.824; relative viability (NCI-H1975; first compound 0.04 µM): 0.289; relative viability (NCI-H1975; first compound 0.1265 µM): 0.199; relative viability (NCI-H1975; first compound 0.4 µM): 0.26; relative viability (NCI-H1975; first compound 4 µM): 0.158; relative viability (NCI-H2170; first compound 0.04 µM): 0.661; relative viability (NCI-H2170; first compound 0.1265 µM): 0.67; relative viability (NCI-H2170; first compound 0.4 µM): 0.677; relative viability (NCI-H2170; first compound 4 µM): 0.86; relative viability (NCI-H23; first compound 0.04 µM): 0.205; relative viability (NCI-H23; first compound 0.1265 µM): 0.213; relative viability (NCI-H23; first compound 0.4 µM): 0.227; relative viability (NCI-H23; first compound 4 µM): 0.178; relative viability (NCI-H441; first compound 0.04 µM): 0.305; relative viability (NCI-H441; first compound 0.1265 µM): 0.354; relative viability (NCI-H441; first compound 0.4 µM): 0.274; relative viability (NCI-H441; first compound 4 µM): 0.309; relative viability (NCI-H520; first compound 0.04 µM): 0.249; relative viability (NCI-H520; first compound 0.1265 µM): 0.256; relative viability (NCI-H520; first compound 0.4 µM): 0.224; relative viability (NCI-H520; first compound 4 µM): 0.221; relative viability (NCI-H596; first compound 0.04 µM): 1.16; relative viability (NCI-H596; first compound 0.1265 µM): 1.18; relative viability (NCI-H596; first compound 0.4 µM): 0.921; relative viability (NCI-H596; first compound 4 µM): 0.964; relative viability (PC-3 [JPC-3]; first compound 0.04 µM): 0.744; relative viability (PC-3 [JPC-3]; first compound 0.1265 µM): 0.684; relative viability (PC-3 [JPC-3]; first compound 0.4 µM): 0.728; relative viability (PC-3 [JPC-3]; first compound 4 µM): 0.605; relative viability (SK-MES-1; first compound 0.04 µM): 0.659; relative viability (SK-MES-1; first compound 0.1265 µM): 0.764; relative viability (SK-MES-1; first compound 0.4 µM): 0.664; relative viability (SK-MES-1; first compound 4 µM): 0.475; relative viability (SW 900; first compound 0.04 µM): 0.166; relative viability (SW 900; first compound 0.1265 µM): 0.165; relative viability (SW 900; first compound 0.4 µM): 0.169; relative viability (SW 900; first compound 4 µM): 0.178
